Earlier results on one compound are cited in patent US8541025B2, “Co-crystals and pharmaceutical formulations comprising the same” (Vertex Pharmaceuticals Incorporated, priority 2008, dated 2013).

The data set addresses hepatitis C virus ("HCV") NS3/4A protease (Hepatitis C virus genotype 1a, UniProt P27958).

Structures are written as SMILES. Where two headings read alike, the source gives them in different places.

Chain of hepatitis C virus ("HCV") NS3/4A protease (P27958 1027-1657): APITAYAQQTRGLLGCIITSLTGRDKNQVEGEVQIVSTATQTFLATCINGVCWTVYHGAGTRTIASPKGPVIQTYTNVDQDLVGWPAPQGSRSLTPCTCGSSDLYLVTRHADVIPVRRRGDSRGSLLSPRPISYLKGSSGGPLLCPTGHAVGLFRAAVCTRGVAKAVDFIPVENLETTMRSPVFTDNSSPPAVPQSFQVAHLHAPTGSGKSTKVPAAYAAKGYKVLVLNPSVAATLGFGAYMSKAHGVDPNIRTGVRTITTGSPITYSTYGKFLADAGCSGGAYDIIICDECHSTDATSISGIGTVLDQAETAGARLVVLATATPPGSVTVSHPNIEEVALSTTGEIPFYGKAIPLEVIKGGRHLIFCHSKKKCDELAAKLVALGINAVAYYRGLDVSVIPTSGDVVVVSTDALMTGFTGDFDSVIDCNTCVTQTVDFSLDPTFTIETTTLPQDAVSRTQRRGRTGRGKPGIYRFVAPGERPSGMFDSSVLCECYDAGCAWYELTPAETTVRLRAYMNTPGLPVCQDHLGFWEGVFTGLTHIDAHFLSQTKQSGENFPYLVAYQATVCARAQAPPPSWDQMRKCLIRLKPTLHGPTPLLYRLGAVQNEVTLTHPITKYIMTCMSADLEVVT
Chain of hepatitis C virus ("HCV") NS3/4A protease (P27958 1658-1711): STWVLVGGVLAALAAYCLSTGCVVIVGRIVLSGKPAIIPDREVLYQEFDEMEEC

Take `CC[C@H](NC(=O)[C@@H]1[C@H]2CCC[C@H]2CN1C(=O)[C@@H](NC(=O)C(NC(=O)c1cnccn1)C1CCCCC1)C(C)(C)C)C(=O)C(=O)NC1CC1` (some centres unmarked) [VX-950]: the Ki was 3 nM (competitive, reversible inhibitor, read-out: steady state binding constant (ki*)) and 8 nM (read-out: Ki).

By Ki is commonly meant a dissociation constant, usually derived from enzyme kinetics or from competition with a known ligand.
